The values below come from patent US9718782B2, “TrkA kinase inhibitors, compositions and methods thereof” (MERCK SHARP & DOHME CORP, priority 2013, dated 2017).

T1 sequence (P04629 33-796): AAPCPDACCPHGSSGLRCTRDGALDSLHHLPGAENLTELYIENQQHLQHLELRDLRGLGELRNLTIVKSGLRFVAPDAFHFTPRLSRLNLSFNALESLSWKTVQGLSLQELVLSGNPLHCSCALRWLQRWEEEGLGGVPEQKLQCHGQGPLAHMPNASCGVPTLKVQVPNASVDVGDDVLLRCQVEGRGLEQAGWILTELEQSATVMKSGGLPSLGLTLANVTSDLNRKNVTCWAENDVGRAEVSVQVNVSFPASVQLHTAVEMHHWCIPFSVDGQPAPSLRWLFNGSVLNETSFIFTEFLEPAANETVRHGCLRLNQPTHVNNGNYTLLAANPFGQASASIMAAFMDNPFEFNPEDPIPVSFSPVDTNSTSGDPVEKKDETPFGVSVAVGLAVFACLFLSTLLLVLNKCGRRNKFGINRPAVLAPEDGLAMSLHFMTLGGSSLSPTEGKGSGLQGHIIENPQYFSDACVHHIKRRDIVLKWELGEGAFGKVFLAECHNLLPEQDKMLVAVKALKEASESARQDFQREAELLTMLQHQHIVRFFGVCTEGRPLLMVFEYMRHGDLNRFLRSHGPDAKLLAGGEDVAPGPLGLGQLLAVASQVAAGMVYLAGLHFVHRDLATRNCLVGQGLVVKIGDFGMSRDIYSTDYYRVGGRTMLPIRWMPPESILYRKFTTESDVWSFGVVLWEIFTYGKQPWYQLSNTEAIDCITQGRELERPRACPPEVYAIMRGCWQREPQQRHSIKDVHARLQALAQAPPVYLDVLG

The assay addresses T1, TrkA receptor (Homo sapiens, UniProt P04629).
T1 construct: host or cells: U2OS (PathHunter, 'TrkA p75' cells)
Put plainly: DiscoverX PathHunter TrkA functional assay (NGF-stimulated U2OS cells). To be noted: U2OS cells expressing TrkA-Prolink fusion and Shc1-EA; compound 1 hour, then EC80 NGF 3 hours; luminescence. Format: cell-based. As to the method:
TrkA functional activity was measured using a DiscoverX PathHunter assay. In this assay, U2OS cells are express TrkA receptor as a fusion with the weakly complementing fragment of B-galactosidase, which DiscoverX calls “Prolink (PK)”; additionally, Shcl is fused with a larger fragment, which is called “Enzyme Acceptor (EA)”. Activation of the TrkA receptor, upon NGF addition, results in the kinase domain being phosphorylated, resulting in subsequent recruitment of Shcl-EA protein. That recruitment results in an active B-galactosidase enzyme that is detected by addition of a chemiluminescent substrate.
All reagents were purchased from DiscoverX, except for the receptor agonists (NGF, BDNF, NT3) which were purchased from Peprotech. Cells were expanded and frozen into cryovials (TrkA p75 @passage 13, 1.5×10^7 cells/vial; TrkC p75 @passage 11, 1.5×10^7 cells/vial in InVitrogen Recovery Cell Freezing media), and stored in the vapor phase of liquid nitrogen, and thawed immediately before use. Thawed cells were added to a 384-well plate (BD Falcon 384-well white/clear, TC surface 120 uL assay plates (353963), 20 uL of 0.375e6 cells/mL=>7500 cells/well), and allowed to incubate overnight. Compound (10 mM starting dose: 202.5 nL compound yielding 0.81% DMSO final in total assay volume and starting doses 81 uM) was added the following morning and allowed to incubate on cells for 1 hour. Then, 5 uL EC80 of agonist (NGF for TrkA; BDNF for TrkB; NT3 for TrkC) was added and allowed to incubate for 3 hours at room temperature. DiscoverX PathHunter detection reagent is added (12 uL to plate and components diluted in parts as per kit instructions) and the plate is further incubated for 1 hour in the dark. The plate is read via luminescence on the Perkin Elmer Envision.
In general, IC50 refers to the midpoint of a concentration-inhibition curve. A higher IC50 goes with a need for much substance. For the compound `Cn1ncnc1-c1cncc(NC(=O)NC2c3ccccc3-c3ccccc32)c1` [Compound 74, 1-(9H-fluoren-9-yl)-3-[5-(1-methyl-1H-1,2,4-triazol-5-yl)pyridin-3-yl]urea], inhibition was half-maximal at 990 nM (IC50). In other words, the sub-micromolar range.
Then `Cn1cnc(-c2ccccc2)c1NC(=O)NC1c2ccccc2-c2ccccc21` [Compound 22, 1-(9H-fluoren-9-yl)-3-(1-methyl-4-phenyl-1H-imidazol-5-yl)urea], with 310 nM; and `Cc1nc(-c2ccccc2)c(NC(=O)NC2c3ccccc3-c3ccccc32)[nH]1` [Compound 59, 1-(9H-fluoren-9-yl)-3-(2-methyl-4-phenyl-1H-imidazol-5-yl)urea], with 500 nM.
Next, `O=C(Nc1c(-c2ccco2)nc2ccccn12)NC1c2ccccc2-c2ccccc21` [Compound 68, 1-(9H-fluoren-9-yl)-3-(2-furan-2-ylimidazo[1,2-a]pyridin-3-yl)urea]: 970 nM; `O=C(Nc1cccc(-c2nnc[nH]2)c1)NC1c2ccccc2-c2ccccc21` [Compound 48, 1-(9H-fluoren-9-yl)-3-[3-(4H-1,2,4-triazol-3-yl)phenyl]urea]: 360 nM; `COc1ccc(-c2cc(NC(=O)NC3c4ccccc4-c4ccccc43)n(-c3ccccc3)n2)cc1` [Compound 24, 1-(9H-fluoren-9-yl)-3-[3-(4-methoxyphenyl)-1-phenyl-1H-pyrazol-5-yl]urea]: 550 nM.
The compound `O=C(Nc1cccnc1-c1ccoc1)NC1c2ccccc2-c2ccccc21` [Compound 55, 1-(9H-fluoren-9-yl)-3-(2-furan-3-ylpyridin-3-yl)urea] displayed an IC50 of 390 nM.
Compound `Cn1cnnc1-c1cccc(NC(=O)NC2c3ccccc3-c3ccccc32)c1` [Compound 42, 1-(9H-fluoren-9-yl)-3-[3-(4-methyl-4H-1,2,4-triazol-3-yl)phenyl]urea] gave an IC50 of 110 nM.
Next, `CN1CCN(Cc2ccccc2NC(=O)NC2c3ccccc3-c3ccccc32)CC1` [Compound 36, 1-(9H-fluoren-9-yl)-3-{2-[(4-methylpiperazin-1-yl)methyl]phenyl}urea]: 3000 nM; `Cc1ccc(NC(=O)NC2c3ccccc3-c3ccccc32)c(F)n1` [Compound 27, 1-(9H-fluoren-9-yl)-3-(2-fluoro-6-methylpyridin-3-yl)urea]: 3200 nM.
Compound `O=C(Nc1cccc(-n2cnnc2)c1)NC1c2ccccc2-c2ccccc21` [Compound 34, 1-(9H-fluoren-9-yl)-3-[3-(4H-1,2,4-triazol-4-yl)phenyl]urea] returned an IC50 of 1100 nM.
Then `Cc1nc(-c2cccc(NC(=O)NC3c4ccccc4-c4ccccc43)c2)oc1C` [Compound 65, 1-[3-(4,5-dimethyl-1,3-oxazol-2-yl)phenyl]-3-(9H-fluoren-9-yl)urea], with 310 nM.
Next, `Cc1nnnn1-c1cccc(NC(=O)NC2c3ccccc3-c3ccccc32)c1` [Compound 33, 1-(9H-fluoren-9-yl)-3-[3-(5-methyl-1H-tetrazol-1-yl)phenyl]urea]: 1700 nM; `Cc1ccc(NC(=O)NC2c3ccccc3-c3ccccc32)cn1` [Compound 13, 1-(9H-fluoren-9-yl)-3-(6-methylpyridin-3-yl)urea]: 2500 nM; `Cc1nn(-c2ccc(F)cc2)c(NC(=O)NC2c3ccccc3-c3ccccc32)c1C#N` [Compound 23, 1-[4-cyano-1-(4-fluorophenyl)-3-methyl-1H-pyrazol-5-yl]-3-(9H-fluoren-9-yl)urea]: 330 nM.
Then `Cn1ccnc1-c1cccc(NC(=O)NC2c3ccccc3-c3ccccc32)c1` [Compound 63, 1-(9H-fluoren-9-yl)-3-[3-(l-methyl-1H-imidazol-2-yl)phenyl]urea], with 96 nM; and `Cc1ccccc1-n1nc(C(C)(C)C)cc1NC(=O)NC1c2ccccc2-c2ccccc21` [Compound 18, 1-[3-tert-butyl-1-(2-methylphenyl)-1H-pyrazol-5-yl]-3-(9H-fluoren-9-yl)urea], with 850 nM; and `O=C(Nc1cccnc1-n1cccn1)NC1c2ccccc2-c2ccccc21` [Compound 83, 1-(9H-fluoren-9-yl)-3-[2-(1H-pyrazol-1-yl)pyridin-3-yl]urea], with 3000 nM.
With `Cc1ncc(NC(=O)NC2c3ccccc3Oc3ccccc32)c(-c2ccccc2)n1` [Compound 3, 1-(2-methyl-4-phenylpyrimidin-5-yl)-3-(9H-xanthen-9-yl)urea], the IC50 was 61 nM.
Then `O=C(Nc1conc1-c1ccccc1)NC1c2ccccc2-c2ccccc21` [Compound 70, 1-(9H-fluoren-9-yl)-3-(3-phenylisoxazol-4-yl)urea], with 2200 nM.
For `Cc1nc(-c2ccccc2)c(NC(=O)NC2c3ccccc3-c3ccccc32)n1C` [Compound 58, 1-(1,2-dimethyl-4-phenyl-1H-imidazol-5-yl)-3-(9H-fluoren-9-yl)urea], the IC50 is 190 nM.
Then `Cn1ccnc1-c1cc(NC(=O)NC2c3ccccc3-c3ccccc32)n(C)n1` [Compound 85, 1-(9H-fluoren-9-yl)-3-[1-methyl-3-(1-methyl-1H-imidazol-2-yl)-1H-pyrazol-5-yl]urea], with 100 nM.
Next, `O=C(Nc1cncc(-c2cccnc2)c1)NC1c2ccccc2-c2ccccc21` [Compound 72, 1-(3,3′-bipyridin-5-yl)-3-(9H-fluoren-9-yl)urea]: 1400 nM.
Then `O=C(Nc1c(-c2ccccc2)nc2ccccn12)NC1c2ccccc2-c2ccccc21` [Compound 21, 1-(9H-fluoren-9-yl)-3-(2-phenylimidazo [1,2-a]pyridin-3-yl)urea], with 28 nM; and `CCn1cnnc1-c1cccc(NC(=O)NC2c3ccccc3-c3ccccc32)c1` [Compound 44, 1-[3-(4-ethyl-4H-1,2,4-triazol-3-yl)phenyl]-3-(9H-fluoren-9-yl)urea], with 410 nM.
As for `O=C(Nc1ccccc1-c1ccccc1)NC1c2ccccc2-c2ccccc21` [Compound 31, 1-biphenyl-2-yl-3-(9H-fluoren-9-yl)urea], the IC50 is 960 nM.
With `Cc1nnc(-c2cccc(NC(=O)NC3c4ccccc4-c4ccccc43)c2)o1` [Compound 46, 1-(9H-fluoren-9-yl)-3-[3-(5-methyl-1,3,4-oxadiazol-2-yl)phenyl]urea], 660 nM corresponded to half-maximal inhibition (IC50).
Next, `O=C(Nc1cccnc1-c1cccc(F)c1)NC1c2ccccc2-c2ccccc21` [Compound 75, 1-(9H-fluoren-9-yl)-3-[2-(3-fluorophenyl)pyridin-3-yl]urea]: 190 nM.
